Results: PubChem BioAssay AID1259407 (Chemical Carcinogenesis Research Information System (CCRIS), 2018)
Calls of active or inactive are those of the source. The rule behind the calls is not given here.

Tested on: CCRIS mutagenicity, Ames/micronucleus/aberration tests
Assay: CCRIS mutagenicity studies
[1] = Test System: AMES SALMONELLA TYPHIMURIUM, Strain/Indicator: TA100, Metabolic Activation: NONE, Method: STANDARD PLATE
[2] = Test System: AMES SALMONELLA TYPHIMURIUM, Strain/Indicator: TA100, Metabolic Activation: MOUSE, LIVER, S-9, AROCLOR 1254, Method: STANDARD PLATE

Structure (SMILES): COc1ccc(/C=N/n2nnc3c([nH]c4ccccc43)c2=O)cc1
- mutagenic call (Test System: AMES SALMONELLA TYPHIMURIUM, Strain/Indicator: TA97, Metabolic Activation: NONE, Method: PREINCUBATION): active; positive
- mutagenic call (Test System: AMES SALMONELLA TYPHIMURIUM, Strain/Indicator: TA97, Metabolic Activation: RAT, LIVER, S-9, AROCLOR 1254 (10%), Method: PREINCUBATION): active; positive
- mutagenic call (Test System: AMES SALMONELLA TYPHIMURIUM, Strain/Indicator: TA98, Metabolic Activation: NONE, Method: PREINCUBATION): active; positive
- mutagenic call (Test System: AMES SALMONELLA TYPHIMURIUM, Strain/Indicator: TA98, Metabolic Activation: RAT, LIVER, S-9, AROCLOR 1254 (10%), Method: PREINCUBATION): active; positive
- mutagenic call (Test System: AMES SALMONELLA TYPHIMURIUM, Strain/Indicator: TA100, Metabolic Activation: NONE, Method: PREINCUBATION): active; positive
- mutagenic call (Test System: AMES SALMONELLA TYPHIMURIUM, Strain/Indicator: TA100, Metabolic Activation: RAT, LIVER, S-9, AROCLOR 1254 (10%), Method: PREINCUBATION): active; positive
- mutagenic call (Test System: AMES SALMONELLA TYPHIMURIUM, Strain/Indicator: TA102, Metabolic Activation: NONE, Method: PREINCUBATION): inactive; negative
- mutagenic call (Test System: AMES SALMONELLA TYPHIMURIUM, Strain/Indicator: TA102, Metabolic Activation: RAT, LIVER, S-9, AROCLOR 1254 (10%), Method: PREINCUBATION): inactive; negative

Structure (SMILES): Nc1nc2cc(Cl)c(Cl)cc2s1
- mutagenic call (Test System: AMES SALMONELLA TYPHIMURIUM, Strain/Indicator: TA98, Metabolic Activation: HAMSTER, LIVER, S-9, AROCLOR 1254, Method: STANDARD PLATE): inactive; negative
- mutagenic call (Test System: AMES SALMONELLA TYPHIMURIUM, Strain/Indicator: TA98, Metabolic Activation: NONE, Method: STANDARD PLATE): inactive; negative
- mutagenic call (Test System: AMES SALMONELLA TYPHIMURIUM, Strain/Indicator: TA98, Metabolic Activation: RAT, LIVER, S-9, AROCLOR 1254, Method: STANDARD PLATE): inactive; negative
- mutagenic call (Test System: AMES SALMONELLA TYPHIMURIUM, Strain/Indicator: TA100, Metabolic Activation: HAMSTER, LIVER, S-9, AROCLOR 1254, Method: STANDARD PLATE): inactive; negative
- mutagenic call [1]: inactive; negative
- mutagenic call (Test System: AMES SALMONELLA TYPHIMURIUM, Strain/Indicator: TA100, Metabolic Activation: RAT, LIVER, S-9, AROCLOR 1254, Method: STANDARD PLATE): inactive; negative
- mutagenic call (Test System: AMES SALMONELLA TYPHIMURIUM, Strain/Indicator: TA1535, Metabolic Activation: HAMSTER, LIVER, S-9, AROCLOR 1254, Method: STANDARD PLATE): inactive; negative
- mutagenic call (Test System: AMES SALMONELLA TYPHIMURIUM, Strain/Indicator: TA1535, Metabolic Activation: NONE, Method: STANDARD PLATE): inactive; negative
- mutagenic call (Test System: AMES SALMONELLA TYPHIMURIUM, Strain/Indicator: TA1535, Metabolic Activation: RAT, LIVER, S-9, AROCLOR 1254, Method: STANDARD PLATE): inactive; negative
- mutagenic call (Test System: AMES SALMONELLA TYPHIMURIUM, Strain/Indicator: TA1537, Metabolic Activation: HAMSTER, LIVER, S-9, AROCLOR 1254, Method: STANDARD PLATE): inactive; negative
- mutagenic call (Test System: AMES SALMONELLA TYPHIMURIUM, Strain/Indicator: TA1537, Metabolic Activation: NONE, Method: STANDARD PLATE): inactive; negative
- mutagenic call (Test System: AMES SALMONELLA TYPHIMURIUM, Strain/Indicator: TA1537, Metabolic Activation: RAT, LIVER, S-9, AROCLOR 1254, Method: STANDARD PLATE): inactive; negative
- mutagenic call (Test System: AMES SALMONELLA TYPHIMURIUM, Strain/Indicator: TA1538, Metabolic Activation: HAMSTER, LIVER, S-9, AROCLOR 1254, Method: STANDARD PLATE): inactive; negative
- mutagenic call (Test System: AMES SALMONELLA TYPHIMURIUM, Strain/Indicator: TA1538, Metabolic Activation: NONE, Method: STANDARD PLATE): inactive; negative
- mutagenic call (Test System: AMES SALMONELLA TYPHIMURIUM, Strain/Indicator: TA1538, Metabolic Activation: RAT, LIVER, S-9, AROCLOR 1254, Method: STANDARD PLATE): inactive; negative
- mutagenic call (Test System: MOUSE LYMPHOMA, Strain/Indicator: L5178Y (TK+/TK-), Metabolic Activation: NONE, Method: SUSPENSION/PLATE): inactive; negative. reevaluation of results: negative
- mutagenic call (Test System: MOUSE LYMPHOMA, Strain/Indicator: L5178Y (TK+/TK-), Metabolic Activation: RAT, LIVER, S-9, AROCLOR 1254, Method: SUSPENSION/PLATE): inactive; negative. reevaluation of results: negative

Structure (SMILES): Brc1cc(-c2cc(Br)c(Br)c(Br)c2)cc(Br)c1Br
- mutagenic call (Test System: CHINESE HAMSTER V-79, Strain/Indicator: V-79 (HGPRT)/6-THIOGUANINE, Metabolic Activation: NONE): inactive; negative

Structure (SMILES): CC(Cl)C(=O)NCc1ccccc1 (configuration not stated)
- mutagenic call [2]: inactive; negative
- mutagenic call [1]: inactive; negative

Structure (SMILES): O=C(NCc1ccccc1)C1CO1 (configuration not stated)
- mutagenic call [2]: active; positive
- mutagenic call [1]: active; positive

Structure (SMILES): N#Cc1ccc2nc(N)[nH]c2c1
- mutagenic call (Test System: AMES SALMONELLA TYPHIMURIUM, Strain/Indicator: TA98, Metabolic Activation: RAT, LIVER, S-9, AROCLOR 1254, Method: PREINCUBATION): active; positive
- mutagenic call (Test System: AMES SALMONELLA TYPHIMURIUM, Strain/Indicator: TA100, Metabolic Activation: RAT, LIVER, S-9, AROCLOR 1254, Method: PREINCUBATION): active; positive
